Test [1] concerns the target T1, acetylcolinesterase from electric eel (Type VI) (Electrophorus electricus, UniProt O42275).
T1 construct: purified acetylcolinesterase from electric eel (Type VI); tissue Type VI; host or cells: electric eel
Briefly: biochemical. Conditions: reported with SD; assayed in triplicate; read-out: AChE IC50. The protocol:
The assay was performed in 96-well microtiter plates in the same condition for both chalcones and control substance. 25 µL of 100 mM sodium phosphate buffer pH 8, 25 µL of sample and 25 µL acetylcholinesterase solutions containing 0.54 U/mL were mixed in each well of the plate and allowed to incubate for 15 min at 25 °C. Subsequently, 25 µL of a solution of ATCI (15 mM, dissolved in water) and 125 µL of 3 mM DTNB (5,5’-dithio-bis-nitro benzoic acid) were added. The absorbance at 405 nm was recorded during the first 5 min of the reaction. […] Percentages (%) of AChE inhibitions of tested compounds were calculated from the absorbance values as indicated in Equation (1):% I = [(A0E − A0) − (Ac − A0C)]/(A0E − A0)(1) where I is the percent inhibition of acetylcholinesterase; A0E is the absorbance value of the control blank sample with enzyme; A0 is the absorbance value of blank sample; Ac is the absorbance value of the tested sample; A0C is the absorbance value of blank test sample.
The method was as described earlier.

Another test addresses T2, β-secretase (BACE-1) (Homo sapiens, UniProt P56817).
T2 construct: purchased Sigma–Aldrich
Briefly: biochemical. Conditions: reported with SD. As for the experimental part: β-secretase (BACE-1) Activity Detection Kit (Fluorescent) was purchased from Sigma–Aldrich and used to determine the effect of the synthesized chalcones on β-secretase activity. The assay was carried out according to the manufacturer’s protocol. The enzyme solution (0.3 units/uL, 2 μL) was reacted with the 50 μM of the substrate (7-methoxycumarin- 4-acetyl-(Asn670, Lue671)-amyloid β/A4 precursor protein 770 fragment 667–676-(2,4-dinitrophenyl))Lys-Arg-Arg amide trifluoroacetate salt and sulfated polysaccharide samples (2–5 mg/mL) in a fluorescence assay buffer in different wells. Baseline readings were measure immediately on a Hitachi F-7000 (excitation: 320 nm; emission: 405 nm) fluorescence spectrophotometer and repeated after 2 h incubation at 37 °C. […] The method was as described earlier.

The test system of the next test is AChE. The note with it: dataset for 2D-QSAR model, Ellman's method, galantamine as reference; cited from earlier work. Background: In Ellman's method for cholinesterases, released thiocholine reacts with DTNB.
Setting [2] is: pIC50 = −logIC50, read-out: BACE-1 pIC50 Observed (converted).

The structures appear in SMILES notation. Where two headings read alike, the source gives them in different places.

T2 sequence (P56817 46-501): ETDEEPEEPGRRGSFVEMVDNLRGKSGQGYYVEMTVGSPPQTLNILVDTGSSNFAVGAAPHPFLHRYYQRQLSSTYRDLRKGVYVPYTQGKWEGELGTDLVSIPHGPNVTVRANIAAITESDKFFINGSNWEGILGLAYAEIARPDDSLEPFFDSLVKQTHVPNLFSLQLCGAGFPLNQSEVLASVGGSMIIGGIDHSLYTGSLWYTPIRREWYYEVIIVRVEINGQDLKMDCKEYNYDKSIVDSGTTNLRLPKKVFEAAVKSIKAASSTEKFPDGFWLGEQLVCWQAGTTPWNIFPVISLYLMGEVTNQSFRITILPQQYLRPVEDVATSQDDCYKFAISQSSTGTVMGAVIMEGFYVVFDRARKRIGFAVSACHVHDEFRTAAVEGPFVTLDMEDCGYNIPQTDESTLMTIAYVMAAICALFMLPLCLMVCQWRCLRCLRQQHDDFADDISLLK
T1 sequence (O42275 24-633): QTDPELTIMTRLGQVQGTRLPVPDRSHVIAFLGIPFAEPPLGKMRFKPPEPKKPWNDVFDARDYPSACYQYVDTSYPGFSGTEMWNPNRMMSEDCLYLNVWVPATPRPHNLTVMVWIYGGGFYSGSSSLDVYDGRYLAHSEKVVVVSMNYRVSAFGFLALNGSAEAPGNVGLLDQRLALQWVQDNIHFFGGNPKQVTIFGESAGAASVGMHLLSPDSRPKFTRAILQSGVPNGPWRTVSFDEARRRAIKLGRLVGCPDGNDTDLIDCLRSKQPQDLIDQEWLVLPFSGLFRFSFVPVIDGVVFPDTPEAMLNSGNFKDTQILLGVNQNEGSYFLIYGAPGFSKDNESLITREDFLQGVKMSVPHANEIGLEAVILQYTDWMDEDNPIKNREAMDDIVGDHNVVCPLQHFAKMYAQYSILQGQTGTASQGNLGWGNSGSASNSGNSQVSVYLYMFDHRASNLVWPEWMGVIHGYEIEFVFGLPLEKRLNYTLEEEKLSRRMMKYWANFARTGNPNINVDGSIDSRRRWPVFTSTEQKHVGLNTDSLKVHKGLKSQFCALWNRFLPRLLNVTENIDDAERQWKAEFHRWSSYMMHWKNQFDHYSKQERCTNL

Take `COc1cccc(/C=C/C(=O)c2ccc3c(c2)N(CCCN(C)C)c2ccccc2S3)c1` [AC2, (E)-1-(10-(3-(dimethylamino)propyl)-10H-phenothiazin-2-yl)-3-(3-methoxyphenyl)prop-2-en-1-one]: the IC50 was 30.9 ± 2.1 µM in test [1], 3.02 µM on β-secretase (BACE-1) (setting [2]) and 3 µM at β-secretase (BACE-1) (read-out: BACE-1 IC50).
On to `CN(C)CCCN1c2ccccc2Sc2ccc(C(=O)/C=C/c3ccccc3C(F)(F)F)cc21` [AC11], for which the IC50 in test [1] is 186 ± 4.52 µM; at β-secretase (BACE-1) (setting [2]) it was 0.398 µM; at β-secretase (BACE-1) (read-out: BACE-1 IC50), 0.4 µM.
With `COc1cc(/C=C/C(=O)c2ccc3c(c2)N(CCCN(C)C)c2ccccc2S3)cc(OC)c1OC` [AC4, (E)-1-(10-(3-(dimethylamino)propyl)-10H-phenothiazin-2-yl)-3-(3,4,5-trimethoxyphenyl)prop-2-en-1-one], the IC50 was 3.63 ± 0.61 µM in test [1], 0.155 µM on β-secretase (BACE-1) (setting [2]) and 0.16 ± 0.03 µM at β-secretase (BACE-1) (read-out: BACE-1 IC50).
With `CN(C)CCCN1c2ccccc2Sc2ccc(C(=O)/C=C/c3cccc(Br)c3)cc21` [AC10], the results for the IC50 (in test [1]; on β-secretase (BACE-1) (setting [2]); on β-secretase (BACE-1) (read-out: BACE-1 IC50)) were 24.6 ± 1.09 µM, 2 µM and 1.99 ± 0.21 µM, respectively.
For the compound `CN(C)CCCN1c2ccccc2Sc2ccc(C(=O)/C=C/c3ccccc3)cc21` [AC1, (E)-1-(10-(3-(dimethylamino)propyl)-10H-phenothiazin-2-yl)-3-phenylprop-2-en-1-one], the IC50 in test [1] is 33.9 ± 1.45 µM; on β-secretase (BACE-1) (setting [2]), 6.31 µM; at β-secretase (BACE-1) (read-out: BACE-1 IC50), 6.34 ± 0.46 µM.
`COc1ccc(/C=C/C(=O)c2ccc3c(c2)N(CCCN(C)C)c2ccccc2S3)cc1` [AC3, (E)-1-(10-(3-(dimethylamino)propyl)-10H-phenothiazin-2-yl)-3-(4-methoxyphenyl)prop-2-en-1-one]: the IC50 is 11.5 ± 1.29 µM in test [1], 4.47 µM at β-secretase (BACE-1) (setting [2]) and 4.48 ± 0.4 µM at β-secretase (BACE-1) (read-out: BACE-1 IC50).
With `CN(C)CCCN1c2ccccc2Sc2ccc(C(=O)/C=C/c3ccc(OCc4ccccc4)cc3)cc21` [AC13], the IC50 in test [1] is 11.8 ± 0.63 µM; on β-secretase (BACE-1) (setting [2]) it was 3.02 µM; at β-secretase (BACE-1) (read-out: BACE-1 IC50), 3.03 ± 0.21 µM.
As to `CN(C)CCCN1c2ccccc2Sc2ccc(C(=O)/C=C/c3ccc(Cl)cc3Cl)cc21` [AC6], the values for the IC50 (in test [1]; at β-secretase (BACE-1) (setting [2]); on β-secretase (BACE-1) (read-out: BACE-1 IC50)) were 20 ± 1.57 µM, 0.501 µM and 0.5 µM, respectively.
Take `CN(C)CCCN1c2ccccc2Sc2ccc(C(=O)/C=C/c3ccc(N(C)C)cc3)cc21` [AC12]: the IC50 in test [1] was 1.1 ± 0.24 µM; on β-secretase (BACE-1) (setting [2]), 0.347 µM; at β-secretase (BACE-1) (read-out: BACE-1 IC50) it was 0.35 ± 0.04 µM.
The like results for `CN(C)CCCN1c2ccccc2Sc2ccc(C(=O)/C=C/c3c(F)cccc3Cl)cc21` [AC7] were, in that order, 40.7 ± 2.48 µM, 0.447 µM and 0.45 ± 0.04 µM.
`CN(C)CCCN1c2ccccc2Sc2ccc(C(=O)/C=C/c3ccccc3Cl)cc21` [AC8]: the IC50 in test [1] was 15.8 ± 1.08 µM; on β-secretase (BACE-1) (setting [2]), 2.95 µM; on β-secretase (BACE-1) (read-out: BACE-1 IC50) it was 2.97 ± 0.05 µM.
For `CN(C)CCCN1c2ccccc2Sc2ccc(C(=O)/C=C/c3ccc(Cl)cc3)cc21` [AC5], in that order: 60.3 ± 1.84 µM, 1.23 µM and 1.24 ± 0.12 µM.
The like results for `CN(C)CCCN1c2ccccc2Sc2ccc(C(=O)/C=C/c3ccc(F)cc3)cc21` [AC9, (E)-1-(10-(3-(dimethylamino)propyl)-10H-phenothiazin-2-yl)-3-(4-fluorophenyl)prop-2-en-1-one] were, in that order, 25.1 ± 0.83 µM, 3.72 µM and 3.72 ± 0.21 µM.
Regarding `NCCc1c(C(c2c[nH]c3ccccc23)C(O)CO)[nH]c2ccc(O)cc12` (centres unmarked) [CHEMBL3125443], the “pIC50 (AChE dataset, Table S4)” value with AChE was 4.90.
Turning to `O=C1NC2=C(CNC/C2=C\c2ccc(F)cc2)C(c2ccc(F)cc2)N1` (centres unmarked) [CHEMBL2385771], the “pIC50 (AChE dataset, Table S4)” value in the test on AChE is 4.30.
